# ChEMBL document CHEMBL1201862, “PubChem BioAssay data set” (2004)
#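 Test compounds were applied to cells in 96-well plates for 48 hours at 5 doses. GI50 = concentration required for 50% inhibition of growth.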 Active and inactive are the calls of the source. Cut-off read from the data, not from the text of the source: active = GI50 up to about 1.1 µM and inactive = higher.
# Legend:
# Experiment in all cases: NCI-60 cell line screen, 48 h
# BT-549 = test system: BT-549
# TK-10 = test system: TK-10
# A498 = test system: A498
# CAKI-1 = test system: CAKI-1
# OVCAR-8 = test system: OVCAR-8
# T47D = test system: T47D
# SF-539 = test system: SF-539
# HCC 2998 = test system: HCC 2998
# DU-145 = test system: DU-145
# SF-268 = test system: SF-268
# A549 = test system: A549
# NCI-H23 = test system: NCI-H23
# Malme-3M = test system: Malme-3M
# HL-60 = test system: HL-60
# EKVX = test system: EKVX
# SW-620 = test system: SW-620
# SK-MEL-5 = test system: SK-MEL-5
# HOP-62 = test system: HOP-62
# LOX IMVI = test system: LOX IMVI
# HCT-116 = test system: HCT-116
SMILES,GI50 (BT-549),GI50 (TK-10),GI50 (A498),GI50 (CAKI-1),GI50 (OVCAR-8),GI50 (T47D),GI50 (SF-539),GI50 (HCC 2998),GI50 (DU-145),GI50 (SF-268),GI50 (A549),GI50 (NCI-H23),GI50 (Malme-3M),GI50 (HL-60),GI50 (EKVX),GI50 (SW-620),GI50 (SK-MEL-5),GI50 (HOP-62),GI50 (LOX IMVI),GI50 (HCT-116)
Cc1occc1C(=S)Nc1ccc(Cl)c(C(=O)OC(C(C)C)C(C)C)c1,16.6 µM (inactive),15.3 µM (inactive),13.6 µM (inactive),17.1 µM (inactive),13.3 µM (inactive),4.49 µM (inactive),16.4 µM (inactive),9.23 µM (inactive),13.7 µM (inactive),18.5 µM (inactive),11.6 µM (inactive),8.15 µM (inactive),12 µM (inactive),10.8 µM (inactive),8 µM (inactive),16.6 µM (inactive),14.6 µM (inactive),17.2 µM (inactive),13 µM (inactive),10.1 µM (inactive)
CC1=C(N2CC2)C(=O)C(CO)=C(N2CC2)C1=O,0.13 µM (active),0.0258 µM (active),0.0575 µM (active),< 0.01 µM (active),–,0.0114 µM (active),< 0.0123 µM (active),0.0378 µM (active),< 0.01 µM (active),0.0129 µM (active),–,0.0169 µM (active),0.0357 µM (active),< 0.01 µM (active),0.254 µM (active),0.0123 µM (active),0.0279 µM (active),0.0144 µM (active),< 0.01 µM (active),< 0.0291 µM (active)
Cc1ccc2c(c1)SC1=Nc3sc4cc(C)ccc4[n+]3CN12,2.43 µM (inactive),14.9 µM (inactive),11.1 µM (inactive),–,3.04 µM (inactive),1.34 µM (inactive),3.73 µM (inactive),1.75 µM (inactive),24.1 µM (inactive),8.26 µM (inactive),2.68 µM (inactive),1.98 µM (inactive),0.568 µM (active),2.07 µM (inactive),0.687 µM (active),10.4 µM (inactive),1.07 µM (active),9.57 µM (inactive),21 µM (inactive),10.5 µM (inactive)
CCCCCCCCCCCCCCCCCCNc1nc(=O)n(C2CC(O)C(COP(=O)(O)OCC3OC(n4ccc(N)nc4=O)C(O)C3O)O2)cc1F (centres undefined),31.1 µM (inactive),> 100 µM (inactive),17.2 µM (inactive),92.5 µM (inactive),4.13 µM (inactive),28.7 µM (inactive),32.6 µM (inactive),11.8 µM (inactive),25.1 µM (inactive),32.1 µM (inactive),3.25 µM (inactive),16 µM (inactive),24.5 µM (inactive),–,> 100 µM (inactive),> 100 µM (inactive),> 100 µM (inactive),18.7 µM (inactive),10.2 µM (inactive),9.35 µM (inactive)
C=C(C)C(=O)OC1CC2(C)OC2CC(OC(C)=O)/C(C)=C/C2OC(=O)C(=C)C21 (centres undefined),1.09 µM (active),3.45 µM (inactive),12.9 µM (inactive),2.53 µM (inactive),2.03 µM (inactive),3.48 µM (inactive),2.82 µM (inactive),6.34 µM (inactive),2.13 µM (inactive),2.12 µM (inactive),19 µM (inactive),2.76 µM (inactive),0.573 µM (active),0.207 µM (active),3.1 µM (inactive),0.426 µM (active),8.2 µM (inactive),13.1 µM (inactive),2.73 µM (inactive),1.7 µM (inactive)
Cc1c(/C=N/NC(=S)Nc2ccccc2)c(=O)n(-c2ccccc2)n1C,> 100 µM (inactive),> 100 µM (inactive),71.4 µM (inactive),46.2 µM (inactive),> 100 µM (inactive),> 100 µM (inactive),> 100 µM (inactive),> 100 µM (inactive),> 100 µM (inactive),> 100 µM (inactive),–,> 100 µM (inactive),–,> 100 µM (inactive),> 100 µM (inactive),> 100 µM (inactive),> 100 µM (inactive),> 100 µM (inactive),> 100 µM (inactive),> 100 µM (inactive)
O=Cc1cc(O)c(O)c(/C=N/n2c3ccccc3c3ccccc32)c1,2.31 µM (inactive),13.4 µM (inactive),15.9 µM (inactive),16.1 µM (inactive),2.63 µM (inactive),5.64 µM (inactive),6.38 µM (inactive),11.7 µM (inactive),11.4 µM (inactive),3.98 µM (inactive),12.8 µM (inactive),8.09 µM (inactive),12.4 µM (inactive),2.33 µM (inactive),18.9 µM (inactive),5.15 µM (inactive),–,11.2 µM (inactive),8.49 µM (inactive),3.37 µM (inactive)
Cc1ccc(S(=O)(=O)N/N=C/C2(c3ccccc3)c3ccccc3-c3ccccc32)cc1,14.2 µM (inactive),20.9 µM (inactive),18.6 µM (inactive),12.6 µM (inactive),8.97 µM (inactive),2.09 µM (inactive),15.8 µM (inactive),13.3 µM (inactive),12.1 µM (inactive),14 µM (inactive),5.74 µM (inactive),15.5 µM (inactive),5.42 µM (inactive),> 100 µM (inactive),8.95 µM (inactive),15 µM (inactive),11.6 µM (inactive),17.7 µM (inactive),12.7 µM (inactive),7.08 µM (inactive)
COc1ccc2c3c1OC1C34CCN(C)C(C2)C4=CC(I)C1(OC)OC (centres undefined),21.6 µM (inactive),14.7 µM (inactive),22.9 µM (inactive),12.9 µM (inactive),4.09 µM (inactive),16.3 µM (inactive),1.79 µM (inactive),10.2 µM (inactive),10.8 µM (inactive),16.7 µM (inactive),22.2 µM (inactive),7.41 µM (inactive),7.21 µM (inactive),–,14.4 µM (inactive),2.68 µM (inactive),12 µM (inactive),8.77 µM (inactive),7.33 µM (inactive),3.93 µM (inactive)
[N-]=[N+]=Nc1c([N+](=O)[O-])c(Cl)nc2ccccc12,1.74 µM (inactive),2.25 µM (inactive),13.7 µM (inactive),0.971 µM (active),1.87 µM (inactive),2.07 µM (inactive),3.92 µM (inactive),1.98 µM (inactive),2.13 µM (inactive),3.47 µM (inactive),16.8 µM (inactive),2.6 µM (inactive),1.69 µM (inactive),0.119 µM (active),3.01 µM (inactive),0.48 µM (active),8.99 µM (inactive),19.8 µM (inactive),1.59 µM (inactive),1.63 µM (inactive)
CC(=O)NNC(=S)N/C=C1/C(=O)Oc2ccccc2C1=O,> 100 µM (inactive),> 100 µM (inactive),> 100 µM (inactive),> 100 µM (inactive),> 100 µM (inactive),5.2 µM (inactive),> 100 µM (inactive),> 100 µM (inactive),> 100 µM (inactive),> 100 µM (inactive),> 100 µM (inactive),> 100 µM (inactive),> 100 µM (inactive),> 100 µM (inactive),–,> 100 µM (inactive),> 100 µM (inactive),> 100 µM (inactive),> 100 µM (inactive),> 100 µM (inactive)
O=c1[nH]c2ccc(O)cc2o1,> 100 µM (inactive),> 100 µM (inactive),> 100 µM (inactive),> 100 µM (inactive),> 100 µM (inactive),> 100 µM (inactive),> 100 µM (inactive),2.56 µM (inactive),> 100 µM (inactive),> 100 µM (inactive),> 100 µM (inactive),> 100 µM (inactive),0.601 µM (active),> 100 µM (inactive),> 100 µM (inactive),> 100 µM (inactive),> 100 µM (inactive),> 100 µM (inactive),–,> 100 µM (inactive)
CCOc1ccc(NCC2CC/C(=C\c3ccc(O)cc3)C2=O)cc1 (centres undefined),12.9 µM (inactive),12.7 µM (inactive),18.2 µM (inactive),17.1 µM (inactive),17.9 µM (inactive),19 µM (inactive),19.1 µM (inactive),18.1 µM (inactive),25.7 µM (inactive),15.8 µM (inactive),21.2 µM (inactive),23.3 µM (inactive),14.9 µM (inactive),2.22 µM (inactive),20.5 µM (inactive),3.03 µM (inactive),19.1 µM (inactive),37.8 µM (inactive),12.2 µM (inactive),9.64 µM (inactive)
O=C(c1ccccc1)c1c2ccccn2c2cccc[n+]12,> 100 µM (inactive),> 100 µM (inactive),71.8 µM (inactive),> 100 µM (inactive),88.5 µM (inactive),> 100 µM (inactive),> 100 µM (inactive),> 100 µM (inactive),> 100 µM (inactive),> 100 µM (inactive),82.4 µM (inactive),–,> 100 µM (inactive),79.6 µM (inactive),> 100 µM (inactive),> 100 µM (inactive),47 µM (inactive),> 100 µM (inactive),> 100 µM (inactive),> 100 µM (inactive)
